From patent US20230241229A1, “A SAPOGENIN POLYETHYLENE GLYCOL ESTER COMPLEX OF FORMULA-I, A COMPOSITION, PROCESS OF PREPARATION, AND APPLICATIONS THEREOF” (PHYTOSOL INDIA PRIVATE LIMITED, priority 2020, published 2023)

Assay: Solubility of the compositions by adding water
Type: physicochemical
Settings: component weight 100 mg
Experimental: Solubility of the Compositions I, II and III are determined by adding water to the composition and control curcumin (without the Diosgenin polyethylene glycol succinate).

## COc1cc(/C=C/C(=O)CC(=O)/C=C/c2ccc(O)c(OC)c2)ccc1O [Control, Curcumin]
  Water in ml require to solubilize: >1000 mL
